We go through three compounds from patent US11767295B2, “Isoindole derivative” (TIANJIN HEMAY PHARMACEUTICAL CO., LTD., priority 2018, dated 2023).

Assay type in all cases: in vivo
In series [1] the test system is Phorbol ester (TPA)-induced ear swelling in mice. Put plainly: Inhibition of phorbol ester (TPA)-induced ear swelling in mice (Biological Example 4). The following applies: ICR mice, 30 mg/mL in acetone, 40 μL in 2 administrations on right ear; 5 hours after TPA modeling. As to the method: 40 male ICR mice were selected and divided into 5 groups. There were 8 mice in each group.
Before the test, the animals were grouped and the hair around the right ear of the mice was removed.
20 μL of respective drug was applied to the animals in each test group (a blank solvent was applied to the model control group). Modeling and induction were carried out after 1 h 10 min. Except for the blank group, 20 μL of TPA at a concentration of 125 μg/mL were applied to the right ears of the animals for induction. After induction for 10 minutes, 20 μL of respective drug was applied to the right ears of the animals in each test group (a blank solvent was applied to the model control group).
After modeling for 5 hours, ear pieces of both sides on the same location of animals in each group were taken with a punch and weighed to calculate the ear swelling degree, ear swelling rate and inhibitory rate.
The ear swelling degree and ear swelling rate after modeling and administration for 5 hours were analyzed and tested with One-Way ANOVA multiple-group test index in SPSS17.0. P<0.05 indicated there were statistical differences. Ear swelling degree (mg)=right ear weight (mg)−left ear weight (mg); Ear swelling rate (%)=(right ear weight−left ear weight)/left ear weight×100%; Inhibitory rate of ear swelling degree (%)=1−(ear swelling degree of drug administration group−ear swelling degree of blank control group)/(ear swelling degree of model control group−ear swelling degree of blank control group)×100%.

In series [2] the test system is DNCB-induced atopic dermatitis in Balb/c mice. In words: Efficacy evaluation test of DNCB-induced atopic dermatitis in Balb/c mice model (Biological Example 1). The following applies: BID × 10; for Inhibitory Rate of Ear Swelling Degree / Inhibitory Rate of Ear Thickness / Ear Thickness Change, Day 1 / Ear Thickness Change, Day 10 / Weight Changes of Animals, Day 10 / Ear Thickness Change, Day 17 / Weight Changes of Animals, Day 17 / Ear Thickness Change, Day 18 / Weight Changes of Animals, Day 18 / Ear Thickness / Ear Swelling Degree / IgE Concentration / Inhibitory Rate of IgE Concentration: 1 mg/mouse on ear; for Inhibitory Rate of Ear Swelling Degree / Inhibitory Rate of Ear Thickness / Ear Thickness / Ear Swelling Degree / IgE Concentration / Inhibitory Rate of IgE Concentration: 18th day; for Inhibitory Rate of Ear Swelling Degree / Inhibitory Rate of Ear Thickness / Inhibitory Rate of IgE Concentration: vs model and blank control; for Weight Changes of Animals, Day 1 / Inhibitory Rate of Ear Thickness / Ear Thickness Change, Day 1 / Ear Thickness Change, Day 10 / Weight Changes of Animals, Day 10 / Ear Thickness Change, Day 17 / Weight Changes of Animals, Day 17 / Ear Thickness Change, Day 18 / Weight Changes of Animals, Day 18 / Ear Thickness: Balb/c mice; for Weight Changes of Animals, Day 1: 1 mg/mouse (50 mg/mL, 20 μL) on ear; for Weight Changes of Animals, Day 1 / Ear Thickness Change, Day 1 / Ear Thickness Change, Day 10 / Weight Changes of Animals, Day 10 / Ear Thickness Change, Day 17 / Weight Changes of Animals, Day 17 / Ear Thickness Change, Day 18 / Weight Changes of Animals, Day 18: Mean ± S.D.; for Ear Thickness: Table 4; for Ear Swelling Degree: right minus left ear piece weight (8 mm punch); for IgE Concentration / Inhibitory Rate of IgE Concentration: serum. As to the method: 60 healthy male SPF Balb/c mice, each of which the body weight was 19-21 g, were randomly divided into 6 groups by body weight. There were 10 mice in each group.
(§1) Before the test, the hair around the right ear of the mouse was removed to reduce the interference in the drug adhesion to the hair.
The start of the test was recorded as Day 1. The specific time for measuring ear thickness was slightly adjusted based on FIG. 1. After the end of the 18th day of the test, blood was taken from each animal to detect the concentration of immunoglobulin (IgE) in the serum (in accordance with the kit instructions). Both ears of the animal were cut off. Ear pieces were cut by an 8 mm punch at the fixed position of the ears and weighed. Differences in the swelling degrees of two ears were calculated.
(§2) The changes in mouse ear thickness and the ear weights of the same area and the IgE concentrations in the serum among different groups on the 18th day were analyzed and compared statistically with One-Way Anova in SPSS 17, respectively. The G test method was used to delete outliers. p<0.05 indicated there were statistical differences. Ear swelling degree (mg)=right ear weight (mg)−left ear weight (mg); Ear thickness change (mm)=right ear thickness (mm)−left ear thickness (mm); Inhibitory rate of ear swelling degree (%)=1−(ear swelling degree of drug administration group−ear swelling degree of blank control group)/(ear swelling degree of model control group−ear swelling degree of blank control group)×100%; Inhibitory rate of ear thickness change (%)=1−(ear thickness change of drug administration group−ear thickness change of blank control group)/(ear thickness change of model control group−ear thickness change of blank control group)×100%; Inhibitory rate of IgE (%)=1−(IgE concentration in administration group−IgE concentration in blank control group)/(IgE concentration in model control group−IgE concentration in blank control group)×100%.

For series [3] the test system is unchanged. In words: Efficacy evaluation test of DNCB-induced atopic dermatitis in Balb/c mice model (Biological Example 3). The following applies: BID × 11. As to the method: 30 healthy male SPF Balb/c mice, each of which the weight was 19-21 g, were randomly divided into 3 groups by body weight. There were 10 mice in each group.
as §1
The start of the test was recorded as Day 1. The specific time for measuring ear thickness and body weight was slightly adjusted based on FIG. 3. After the end of the Day 19 of the test, blood was taken from each animal to detect the concentration of immunoglobulin (IgE) in the serum (in accordance with the kit instructions). Both ears of the animal were cut off. Ear pieces were cut by an 8 mm punch at the fixed position of the ears and weighed. Differences in the swelling degree of two ears were calculated.
as §2, with “of” for “among”, “19th” for “18th”

Setting [4] is: 0.1 mg/mouse on ear, 19th day, vs model and blank control.

As for `CCOc1cc([C@@H](CC(=O)OC)N2C(=O)c3cccc(NC(C)=O)c3C2=O)ccc1OC` [Example 9, methyl (R)-3-(4-acetamido-1,3-dioxoisoindolin-2-yl)-3-(3-ethoxy-4-methoxyphenyl)propionate], the “Inhibitory Rate of Ear Swelling Degree” value in series [1] is reported as 54.5%.
In the case of `CCOc1cc([C@H](CC(=O)OC)N2C(=O)c3cccc(NC(C)=O)c3C2=O)ccc1OC` [Example 10, methyl (S)-3-(4-acetamido-1,3-dioxoisoindolin-2-yl)-3-(3-ethoxy-4-methoxyphenyl)propionate], in series [2], the “Inhibitory Rate of Ear Swelling Degree” value is listed as 45.7%; the “Weight Changes of Animals, Day 1” value is given as 20.6 ± 0.8 g; the “Inhibitory Rate of Ear Thickness” value came out at 58.8%; the “Ear Thickness Change, Day 1” value is listed as 0.21 ± 0.01 mm. Besides, in series [2], the “Ear Thickness Change, Day 10” value came out at 0.35 ± 0.07 mm; the “Weight Changes of Animals, Day 10” value worked out at 22.3 ± 1.1 g; the “Ear Thickness Change, Day 17” value came to 0.46 ± 0.10 mm; the “Weight Changes of Animals, Day 17” value is listed as 21.8 ± 1.3 g. In series [2], the “Ear Thickness Change, Day 18” value was 0.44 ± 0.07 mm; the “Weight Changes of Animals, Day 18” value turned out to be 22.4 ± 1.3 g; the “Ear Thickness” value is 0.44 ± 0.07 mm; the “Ear Swelling Degree” value is reported as 13.7 ± 2.9 mg. In series [2], the “IgE Concentration” value is reported as 4366.7 ± 1933.9 ng/mL and the “Inhibitory Rate of IgE Concentration” value is on record as 57.5%. Further, in series [3] (setting [4]), the “Inhibitory Rate of Ear Swelling” value was 38.5% and the “Inhibitory Rate of Ear Thickness” value is listed as 27.1%. In addition, the “Weight Changes of Animals, Day 1” value in series [3] (Balb/c mice, 0.1 mg/mouse (5 mg/mL, 20 μL) on ear, Day 1, Mean) came out at 20.5 g. Besides, in series [3] (Balb/c mice, 0.1 mg/mouse on ear, Day 1, Mean ± S.D.), the “Ear Thickness Change, Day 1” value was found to be 0.26 ± 0.01 mm. For the same compound, the “Weight Changes of Animals, Day 8” value in series [3] (Balb/c mice, 0.1 mg/mouse on ear, Day 8, Mean) is 21.8 g. Moreover, in series [3] (Balb/c mice, 0.1 mg/mouse on ear, Day 10, Mean ± S.D.), the “Ear Thickness Change, Day 10” value is given as 0.52 ± 0.11 mm. Moreover, the “Weight Changes of Animals, Day 12” value in series [3] (Balb/c mice, 0.1 mg/mouse on ear, Day 12, Mean) is recorded as 21.9 g. For the same compound, the “Weight Changes of Animals, Day 14” value in series [3] (Balb/c mice, 0.1 mg/mouse on ear, Day 14, Mean) is 22.2 g. For the same compound, in series [3] (Balb/c mice, 0.1 mg/mouse on ear, Day 16, Mean), the “Weight Changes of Animals, Day 16” value is recorded as 22.0 g. In addition, the “Ear Thickness Change, Day 17” value in series [3] (Balb/c mice, 0.1 mg/mouse on ear, Day 17, Mean ± S.D.) was found to be 0.65 ± 0.09 mm. The “Weight Changes of Animals, Day 19” value in series [3] (Balb/c mice, 0.1 mg/mouse on ear, Day 19, Mean) is recorded as 22.3 g. Besides, the “Ear Thickness Change, Day 19” value in series [3] (Balb/c mice, 0.1 mg/mouse on ear, Day 19, Mean ± S.D.) turned out to be 0.63 ± 0.05 mm. In addition, the “Ear Thickness” value in series [3] (Table 11, 0.1 mg/mouse on ear, 19th day) was 0.63 mm. Moreover, in series [3] (right minus left ear piece weight, 0.1 mg/mouse on ear, 19th day), the “Ear Swelling Degree” value is 7.7 mg. Further, the “IgE Concentration” value in series [3] (serum, 0.1 mg/mouse on ear, 19th day) amounted to 5543.4 ng/mL. Besides, the “Inhibitory Rate of IgE Concentration” value in series [3] (serum, 0.1 mg/mouse on ear, 19th day, vs model and blank control) amounted to 29.7%. In addition, the “Inhibitory Rate of Ear Swelling Degree” value in series [1] is given as 71.7%.
For the compound `CCOc1cc(C(CC(=O)OC)N2C(=O)c3cccc(NC(C)=O)c3C2=O)ccc1OC` (centres unmarked) [Example 1, methyl 3-(4-acetamido-1,3-dioxoisoindolin-2-yl)-3-(3-ethoxy-4-methoxyphenyl)propionate], in series [2], the “Inhibitory Rate of Ear Swelling Degree” value was determined as 21.3%; the “Weight Changes of Animals, Day 1” value is recorded as 21.0 ± 0.8 g; the “Inhibitory Rate of Ear Thickness” value was determined as 22.5%; the “Ear Thickness Change, Day 1” value is listed as 0.22 ± 0.02 mm. Besides, in series [2], the “Ear Thickness Change, Day 10” value is listed as 0.47 ± 0.02 mm; the “Weight Changes of Animals, Day 10” value was 22.4 ± 0.8 g; the “Ear Thickness Change, Day 17” value was 0.60 ± 0.08 mm; the “Weight Changes of Animals, Day 17” value came out at 21.9 ± 1.1 g. For the same compound, in series [2], the “Ear Thickness Change, Day 18” value came out at 0.64 ± 0.07 mm; the “Weight Changes of Animals, Day 18” value came out at 22.0 ± 1.3 g; the “Ear Thickness” value is given as 0.64 ± 0.07 mm; the “Ear Swelling Degree” value is 19.9 ± 5.1 mg. Also, in series [2], the “IgE Concentration” value is recorded as 6631.4 ± 1431.1 ng/mL and the “Inhibitory Rate of IgE Concentration” value was 25.6%. For the same compound, in series [1], the “Inhibitory Rate of Ear Swelling Degree” value stood at 60.1%.
